Data from ChEMBL document CHEMBL5528023, “Discovery of a CB2 and 5-HT1A receptor dual agonist for the treatment of depression and anxiety” (Eur J Med Chem, 2024).
Values after ≈ are worked out from the molar mass of the structure shown.

What was measured:
Cannabinoid receptor 1 [1] = molecular target: T1, Cannabinoid receptor 1 (Homo sapiens, UniProt P21554); experiment: Antagonist activity at human CB1 receptor expressed in CHO cells assessed as inhibition of forskolin-stimulated cAMP formation preincubated with compound for 10 mins followed by forskolin induction and measured after 30 mins by HTRF analysis; assay type: functional, cell-based
T1 sequence (P21554 whole entry): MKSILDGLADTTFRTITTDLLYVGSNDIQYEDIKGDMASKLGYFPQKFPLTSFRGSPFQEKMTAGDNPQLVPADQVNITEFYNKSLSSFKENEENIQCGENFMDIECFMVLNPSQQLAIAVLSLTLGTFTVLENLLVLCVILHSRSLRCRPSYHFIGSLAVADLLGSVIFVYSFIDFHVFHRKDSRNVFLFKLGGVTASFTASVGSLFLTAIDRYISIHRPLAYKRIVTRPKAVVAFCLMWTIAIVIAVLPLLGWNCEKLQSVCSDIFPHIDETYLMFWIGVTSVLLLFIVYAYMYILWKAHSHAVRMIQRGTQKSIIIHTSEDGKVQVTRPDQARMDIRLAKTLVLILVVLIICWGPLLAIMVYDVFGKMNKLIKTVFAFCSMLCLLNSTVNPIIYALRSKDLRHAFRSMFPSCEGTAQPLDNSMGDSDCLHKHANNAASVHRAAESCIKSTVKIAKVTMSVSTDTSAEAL

Cannabinoid receptor 1 [2] = molecular target: T1, Cannabinoid receptor 1; experiment: Antagonist activity at human CB1 receptor expressed in CHO cells assessed as inhibition of forskolin-stimulated cAMP formation by measuring maximum inhibition preincubated with compound for 10 mins followed by forskolin induction and measured after 30 mins by HTRF analysis relative to control; assay type: functional, cell-based; settings: filed as antagonist, time 40.0 min
Cannabinoid receptor 2 [3] = molecular target: T2, Cannabinoid receptor 2 (Homo sapiens, UniProt P34972); experiment: Agonist activity at human CB2 receptor expressed in CHO cells assessed as forskolin-stimulated cAMP formation preincubated with compound for 10 mins followed by forskolin induction and measured after 30 mins by HTRF analysis; assay type: functional, cell-based
T2 sequence (P34972 whole entry): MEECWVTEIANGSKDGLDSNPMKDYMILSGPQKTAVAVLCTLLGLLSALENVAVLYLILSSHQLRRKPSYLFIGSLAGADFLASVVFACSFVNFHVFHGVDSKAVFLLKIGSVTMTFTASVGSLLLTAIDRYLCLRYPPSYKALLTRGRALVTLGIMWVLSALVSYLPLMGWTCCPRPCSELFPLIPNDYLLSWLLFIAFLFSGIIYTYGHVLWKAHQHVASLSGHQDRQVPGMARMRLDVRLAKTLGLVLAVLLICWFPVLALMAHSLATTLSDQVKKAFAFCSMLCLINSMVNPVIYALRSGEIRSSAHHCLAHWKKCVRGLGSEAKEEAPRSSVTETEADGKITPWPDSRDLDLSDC

[4] = Solubility of compound in phosphate buffer at pH 6.8 by HPLC analysis; assay type: physicochemical
Cannabinoid receptor 2 [5] = molecular target: T2, Cannabinoid receptor 2; experiment: Agonist activity at CB2 receptor (unknown origin); assay type: functional
[6] = Half life in ICR mouse at 25 mg/kg, po measured upto 8 hrs by LC-MS/MS analysis; assay type: ADME, organism-based; settings: in vivo
Cannabinoid receptor 2 [7] = molecular target: T2, Cannabinoid receptor 2; experiment: Partial agonist activity at human CB2 receptor expressed in CHO cells assessed as forskolin-stimulated cAMP formation preincubated with compound for 10 mins followed by forskolin induction and measured after 30 mins by HTRF analysis; assay type: functional, cell-based
[8] = AUClast in ICR mouse at 25 mg/kg, po measured upto 8 hrs by LC-MS/MS analysis; assay type: ADME, organism-based; settings: in vivo
[9] = Tmax in ICR mouse at 25 mg/kg, po measured upto 8 hrs by LC-MS/MS analysis; assay type: ADME, organism-based; settings: in vivo
[10] = Cmax in ICR mouse at 25 mg/kg, po measured upto 8 hrs by LC-MS/MS analysis; assay type: ADME, organism-based; settings: in vivo
Cannabinoid receptor 2 [11] = molecular target: T2, Cannabinoid receptor 2; experiment: Partial agonist activity at human CB2 receptor expressed in CHO cells assessed as forskolin-stimulated cAMP formation preincubated with compound for 10 mins followed by forskolin induction and measured after 30 mins by HTRF analysis relative to control; assay type: functional, cell-based; settings: filed as partial agonist, time 40.0 min
[12] = Cmax in ICR mouse brain at 25 mg/kg, po measured upto 8 hrs by LC-MS/MS analysis; assay type: ADME, organism-based
[13] = molecular target: T3, 5-hydroxytryptamine receptor 1A (Homo sapiens, UniProt P08908); experiment: Agonist activity at human 5HT1A receptor expressed in HEK293 cells assessed as forskolin-stimulated cAMP formation preincubated with compound for 10 mins followed by forskolin induction and measured after 30 mins by HTRF analysis; assay type: functional, cell-based
T3 sequence (P08908 whole entry): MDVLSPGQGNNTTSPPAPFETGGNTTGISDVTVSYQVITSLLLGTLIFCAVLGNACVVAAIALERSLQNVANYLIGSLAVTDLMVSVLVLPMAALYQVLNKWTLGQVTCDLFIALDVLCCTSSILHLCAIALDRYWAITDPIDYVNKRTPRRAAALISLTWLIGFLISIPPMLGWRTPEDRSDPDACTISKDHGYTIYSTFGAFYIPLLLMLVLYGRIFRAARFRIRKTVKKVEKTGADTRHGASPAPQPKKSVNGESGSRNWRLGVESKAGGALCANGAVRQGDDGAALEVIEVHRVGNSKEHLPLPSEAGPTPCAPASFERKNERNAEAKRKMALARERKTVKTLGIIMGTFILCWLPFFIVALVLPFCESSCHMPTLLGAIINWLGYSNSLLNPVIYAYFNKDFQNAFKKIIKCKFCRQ

[14] = molecular target: T4, 5-hydroxytryptamine receptor 1A (Homo sapiens) (UniProt P08908); experiment: Agonist activity at human 5HT1A receptor expressed in HEK293 cells assessed as forskolin-stimulated cAMP formation preincubated with compound for 10 mins followed by forskolin induction and measured after 30 mins by HTRF analysis relative to control; assay type: functional, cell-based; settings: filed as agonist, time 40.0 min
T4 sequence (whole entry): T3 sequence (P08908 whole entry)

Mus musculus [15] = experiment: Anxiolytic activity against stress-induced hyperthermia in ip dosed ICR mouse assessed as reduction in delta temperature measured for 60 mins; assay type: functional, organism-based; settings: dose 1-10 mg/kg
Mus musculus [16] = experiment: Anxiolytic activity against stress-induced hyperthermia in ip dosed ICR mouse assessed as reduction in basal core rectal temperature measured for 60 mins; assay type: functional, organism-based; settings: dose 3-10 mg/kg

SMILES	IC50 (Cannabinoid receptor 1 [1]) [µM]	Imax (Cannabinoid receptor 1 [2]) [%]	EC50 (Cannabinoid receptor 2 [3]) [µM]	further results
C=C(C)[C@@H]1CCC(C)=C[C@H]1c1c(O)cc(C)cc1O	6.3	115	> 10	
C=C(C)[C@@H]1CCC(C)=C[C@H]1c1c(O)cc(CCCCC)c(C(N)=O)c1O	2.7	86.3	> 0.01	solubility [4]: 0.6 µg/mL (≈ 1.68 µM)
Cc1ccc(CC2CN(C(=O)C3C(C)(C)[C@@H]4CC[C@]3(C)C4)N=C2c2ccc(Cl)c(C)c2)cc1 (some centres undefined)				EC50 (Cannabinoid receptor 2 [5]): 0.19 µM
C=C(C)[C@@H]1CCC(C)=C[C@H]1c1c(O)cc(C2(CCCC)CC2)c(C(=O)N(C)C)c1O	2.7	87.2		half-life [6]: 1.7 h; EC50 (Cannabinoid receptor 2 [7]): 0.755 µM; AUC(0-t) at 8 h [8]: 115 ng·h/mL; Tmax [9]: 0.7 h; Cmax [10]: 62.7 ng/mL; Emax (Cannabinoid receptor 2 [11]): 47.2%
C=C(C)[C@@H]1CCC(C)=C[C@H]1c1c(O)cc(CCCCC)c(C(=O)NC)c1O	2.6	75.3	> 0.01	solubility [4]: 0.7 µg/mL (≈ 1.88 µM)
C=C(C)[C@@H]1CCC(C)=C[C@H]1c1c(O)cc(-c2ccccc2)cc1O	> 10		> 0.01	
C=C(C)[C@@H]1CCC(C)=C[C@H]1c1ccc(C2CC2)c(C(N)=O)c1O	6.5	108		half-life [6]: 2.9 h; EC50 (Cannabinoid receptor 2 [7]): 0.56 µM; AUC(0-t) at 8 h [8]: 170 ng·h/mL; Tmax [9]: 0.4 h; Cmax [10]: 90.4 ng/mL; Emax (Cannabinoid receptor 2 [11]): 44.7%
C=C(C)[C@@H]1CCC(C)=C[C@H]1c1c(O)cc(C2(CCCC)CC2)c(C(=O)NC)c1O	2.2	91.1	> 10	
C=C(C)[C@@H]1CCC(C)=C[C@H]1c1c(O)cc(CCCCC)c(C(=O)NCCN(C)C)c1O	> 10		> 0.01	
C=C(C)[C@@H]1CCC(C)=C[C@H]1c1c(O)cc(CCC)cc1O [CANNABIDIVARIN]	5.6	94.9	> 0.01	
C=C(C)[C@@H]1CCC(C)=C[C@H]1c1c(O)cc(C2CC2)cc1O	4.4	94	> 0.01	
C=C(C)[C@@H]1CCC(C)=C[C@H]1c1c(O)cc(CCCCC)cc1O [CANNABIDIOL]		88.3		Cmax [12]: 239 ng/g; half-life [6]: 4.3 h; EC50 [13]: 4.2 µM; AUC(0-t) at 8 h [8]: 289 ng·h/mL; Tmax [9]: 0.7 h; Cmax [10]: 145 ng/mL; solubility [4]: 0.04 µg/mL (≈ 0.127 µM); Emax [14]: 64%
C=C(C)[C@@H]1CCC(C)=C[C@H]1c1c(O)cc(CCCCC)c(C(=O)NC2CC2)c1O	2.3	88.9	> 0.01	
C=C(C)[C@@H]1CCC(C)=C[C@H]1c1c(O)cc(C(C)(C)CCCC)c(C(=O)NC)c1O	4.4	104	> 10	
C=C(C)[C@@H]1CCC(C)=C[C@H]1c1c(O)cc(C2CCCCC2)cc1O				half-life [6]: 2.7 h; EC50 (Cannabinoid receptor 2 [7]): 0.0552 µM; AUC(0-t) at 8 h [8]: 616 ng·h/mL; Tmax [9]: 0.8 h; Cmax [10]: 216 ng/mL; Emax (Cannabinoid receptor 2 [11]): 62.7%
C=C(C)[C@@H]1CCC(C)=C[C@H]1c1c(O)cc(C2CCCC2)cc1O				half-life [6]: 1.8 h; EC50 (Cannabinoid receptor 2 [7]): 0.113 µM; AUC(0-t) at 8 h [8]: 1080 ng·h/mL; Tmax [9]: 1 h; Cmax [10]: 514 ng/mL; Emax (Cannabinoid receptor 2 [11]): 76.3%
CN1C(=O)CN=C(c2ccccc2)c2cc(Cl)ccc21				Activity (Mus musculus [15]): Dose-Dependent Effect; Activity (Mus musculus [16]): Dose-Dependent Effect
C=C(C)[C@@H]1CCC(C)=C[C@H]1c1c(O)cc(CCCCC)c(C(=O)N(C)C)c1O	6.9	88.9		half-life [6]: 1.7 h; EC50 (Cannabinoid receptor 2 [7]): 1.01 µM; AUC(0-t) at 8 h [8]: 26.3 ng·h/mL; Tmax [9]: 0.4 h; Cmax [10]: 22.2 ng/mL; solubility [4]: 3 µg/mL (≈ 7.78 µM); Emax (Cannabinoid receptor 2 [11]): 73.6%
C=Cc1cc(O)c([C@@H]2C=C(C)CC[C@H]2C(=C)C)c(O)c1	6.4	83.3	> 0.01	
C=C(C)[C@@H]1CCC(C)=C[C@H]1c1c(O)cc(CCCCC)c(C(=O)NCCCCC)c1O	> 10		> 0.01	
C=C(C)[C@@H]1CCC(C)=C[C@H]1c1c(O)cc(C(C)C)cc1O	0.018	94	> 0.01	
C=C(C)[C@@H]1CCC(C)=C[C@H]1c1c(O)cc(-c2ccccn2)cc1O	6.3	92.1	> 0.01	
C=C(C)[C@@H]1CCC(C)=C[C@H]1c1c(O)cc(C(=O)CCCC)cc1O	9.9	82.9		EC50 (Cannabinoid receptor 2 [7]): 4.69 µM; Emax (Cannabinoid receptor 2 [11]): 75.7%
C=C(C)[C@@H]1CCC(C)=C[C@H]1c1c(O)cc(C2CC2)c(C(=O)NC)c1O	> 10		> 10	
C=C(C)[C@@H]1CCC(C)=C[C@H]1c1c(O)cc(C#CC)cc1O	3.3	96.7	> 0.01	
